Data from US20220106595A1, “ANTIBACTERIAL ANTISENSE AGENTS” (priority 2018, published 2022).

Assays:
[1] = tested on: A. baumannii (ATCC19606); experiment: Neutropenic lung infection model in mice, A. baumannii (ATCC19606); type: in vivo; conditions: FIG. 7
[2] = tested on: E. coli (CFT073, ATCC®700928™); experiment: Urinary tract infection mouse model, uropathogenic E. coli (CFT073, ATCC 700928); type: in vivo
Experimental: Efficacy of PED-011 Against E. coli (CFT073, ATCC®700928™) in the Urinary Tract Infection Mouse Model; Challenge with a Uropathogenic Strain
(§1) Female BALB/c mice were infected trans-urethrally with ˜5×10^8 CFU/animal E. coli (CFT073, ATCC®700928™). Twenty-four hours post infection animals were treated twice daily (Q12 h) orally with ciprofloxacin at 30 mg/kg and with single IV doses of PED-011 at 3, 10 and 30 mg/kg (u.i.d). Ten animals from each group were terminated at 48 h post treatment (72 h post infection); bladder and kidneys were collected to determine the bacterial load.
(§2) The vehicle for Ciprofloxacin was 0.25% of Carboxy Methyl Cellulose (CMC) (w/v) and PBS was used for PED-011. PED-011 was dissolved in PBS at 0.6, 2 & 6 mg/mL. At twenty-four hours post infection, animals were treated with the first oral dose of ciprofloxacin and the single dose of PED-011 (10 and 30 mg/kg, IV, single bolus dose, 5 ml/kg dose volume). Animals received further doses of oral ciprofloxacin as per the dosing schedule.

[3] = tested on: E. coli (ATCC BAA-2340); experiment: Urinary tract infection mouse model, resistance strain E. coli (ATCC BAA-2340); type: in vivo; conditions: 48 h post treatment
Experimental: Efficacy of PED-011 Against E. coli (ATCC BAA-2340) in the Urinary Tract Infection Mouse Model; Challenge with a Resistance Strain
as §1, with “(ATCC BAA-2340).” for “(CFT073, ATCC®700928™).”, “at” for “at 3,”, “treatment;” for “treatment (72 h post infection);”
as §2, with “at” for “at 0.6,”, “hour” for “hours”, “were be” for “were”

[4] = tested on: E. coli (ATCC25922); experiment: Urinary tract infection mouse model, E. coli (ATCC25922); type: in vivo; conditions: 48 h post treatment
Experimental: Efficacy of PED-011 Against E. coli (ATCC25922) in the Urinary Tract Infection Mouse Model
as §1, with “trans-ureth rally” for “trans-urethrally”, “˜ 5×10^8” for “˜5×10^8”, “(ATCC 25922). Four” for “(CFT073, ATCC®700928™). Twenty-four”, “at” for “at 3,”, “treatment,” for “treatment (72 h post infection);”
as §2, with “at” for “at 0.6,”, “four” for “twenty-four”

[5] = Log D determination (shake-flask, PBS/1-octanol); type: physicochemical; conditions: PBS pH 7.4 / 1-octanol
Experimental: (v) Log D Determinations:
Log D(PBS) determinations is performed in 96 well microtitre plates using a miniaturised “shake-flask” method. […] The plates are then capped and mixed vigorously for 1 hour on a microtitre plate shaker, after which they were left to stand, allowing the PBS and octanol phases to separate.
Where AUCstd and AUCpbs are the peak areas from the standard and test ion chromatograms respectively.

O=C(O)c1cn(C2CC2)c2cc(N3CCNCC3)c(F)cc2c1=O [Ciprofloxacin, reference compound]
antibacterial effect in lung vs 52 h vehicle control ([1]; 10 mg/kg, po, Q12 h, p<0.05): significant antibacterial effect
bactericidal activity in bladder wrt 24 h PI control and vehicle control ([2]; 30 mg/kg, p.o., b.i.d. Q12h, 72 h post infection, FIG. 3): significant (p<0.05) bactericidal activity
bactericidal activity in kidney wrt 24 h PI control and vehicle control ([2]; 30 mg/kg, p.o., b.i.d. Q12h, 72 h post infection, p<0.05, FIG. 4): significant bactericidal activity
antibacterial effect in bladder vs 24 h control and vehicle control ([3]; 30 mg/kg, p.o., Q12 h, p<0.05, FIG. 5): significant antibacterial effect
antibacterial effect in kidneys vs 24 h control and vehicle control ([3]; 30 mg/kg, p.o., Q12 h, p<0.05, FIG. 6): significant antibacterial effect
antibacterial effect in bladder (Log10 CFU/g) vs 4 h control and vehicle control ([4]; 30 mg/kg, p.o., Q12 h, p<0.05, FIG. 1): significant antibacterial effect
antibacterial effect in kidneys (Log10 CFU/g) vs 4 h control and vehicle control ([4]; 30 mg/kg, p.o., Q12 h, p<0.05, FIG. 2): significant antibacterial effect

PED-011: Linker-6 (Sugar-L-Ala-NH(CH2)3CO) coupled to PMO PED-1, CTT CGA TAG TG (Sequence ID 57, AcpP) (CTTCGATAGTG; all phosphorodiamidate morpholino (PMO); Linker-6 sugar-L-Ala conjugate attached, position not given here, further chemistry not fully specified)
Log D7.4 [5]: 0.74
antibacterial effect in kidney compared to vehicle control ([2]; 30 mg/kg, IV, 1 dose, p<0.05, FIG. 4): significant effect
mean bacterial counts in bladder ([2]; 3, 10 and 30 mg/kg, IV, 1 dose, FIG. 3): dose dependent mean reduction in bacterial counts
antibacterial effect in kidney compared to vehicle control ([2]; 3, 10 and 30 mg/kg, IV, 1 dose, FIG. 4): dose dependent antibacterial effect
antibacterial effect in bladder wrt vehicle control ([2]; 3, 10 and 30 mg/kg, IV, 1 dose, p>0.05, FIG. 3): did not show significant antibacterial effect
antibacterial activity in bladder vs 4 h and vehicle control ([3]; 10 mg/kg, IV, single dose, FIG. 5): not significantly effective
antibacterial activity in kidneys vs 4 h PI control and vehicle control ([3]; 10 mg/kg, IV, single dose, p<0.05, FIG. 6): significant antibacterial activity
antibacterial activity in bladder vs 24 h PI control and vehicle control ([3]; 30 mg/kg, IV, single dose, FIG. 5): a reduction but not statistically significant antibacterial activity
antibacterial activity in kidneys vs 24 h PI control and vehicle control ([3]; 30 mg/kg, IV, single dose, p<0.05, FIG. 6): significant antibacterial activity
antibacterial activity in bladder vs 4 h and vehicle control ([4]; 10 mg/kg, IV, single dose, FIG. 1): not significantly effective
antibacterial activity in kidneys vs 4 h PI control and vehicle control ([4]; 10 mg/kg, IV, single dose, p<0.05, FIG. 2): significant antibacterial activity
antibacterial activity in bladder vs 4 h PI control and vehicle control ([4]; 30 mg/kg, IV, single dose, p<0.05, FIG. 1): significant antibacterial activity
antibacterial activity in kidneys vs 4 h PI control and vehicle control ([4]; 30 mg/kg, IV, single dose, p<0.05, FIG. 2): significant antibacterial activity

PED-012: Linker-6 coupled to PMO PED-2, TCA AAT GAG GC (Sequence ID 91, ftsZ) (TCAAATGAGGC; all phosphorodiamidate morpholino (PMO); Linker-6 conjugate attached at 3' morpholino end, 5' end group not given here, further chemistry not fully specified)
antibacterial activity in lung vs vehicle control at 52 h PI ([1]; 10 mg/kg, IN, single dose, p>0.05): not significantly effective
antibacterial activity in lung vs 52 h vehicle control ([1]; 30 mg/kg, IN, single dose, p<0.05): significant antibacterial activity
